These results are taken from patent publication US20240199623A1 (ILDONG PHARMACEUTICAL CO., LTD., priority 2020, published 2024).

The target of this experiment is human wild type-CFTR (Homo sapiens, UniProt P13569). As to the kind of experiment: Cell-based YFP assay. Also noted: expressed in transfected cells; host or cells: CHO-K1 (Chinese hamster ovary). The settings on record: CHO-K1 cells expressing human wild type-CFTR and YFP-H148Q/I152L; forskolin 20 μM = 100% activity; read-out: Cell-based YFP Assay (EC50) Concentration Range. A digest of the protocol:
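I⁻-driven YFP fluorescence quenching at 37 °C: 2 s baseline, addition of 140 mM iodide solution, then 14 s of readings at 0.4 s intervals. Cells were CHO-K1 expressing human wild-type CFTR plus YFP-H148Q/I152L. EC50 derived from averaged triplicates.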

Molecules are shown by their SMILES. A value given as a limit tells only on which side of the number the result lay.

Sequence of human wild type-CFTR (P13569 whole entry): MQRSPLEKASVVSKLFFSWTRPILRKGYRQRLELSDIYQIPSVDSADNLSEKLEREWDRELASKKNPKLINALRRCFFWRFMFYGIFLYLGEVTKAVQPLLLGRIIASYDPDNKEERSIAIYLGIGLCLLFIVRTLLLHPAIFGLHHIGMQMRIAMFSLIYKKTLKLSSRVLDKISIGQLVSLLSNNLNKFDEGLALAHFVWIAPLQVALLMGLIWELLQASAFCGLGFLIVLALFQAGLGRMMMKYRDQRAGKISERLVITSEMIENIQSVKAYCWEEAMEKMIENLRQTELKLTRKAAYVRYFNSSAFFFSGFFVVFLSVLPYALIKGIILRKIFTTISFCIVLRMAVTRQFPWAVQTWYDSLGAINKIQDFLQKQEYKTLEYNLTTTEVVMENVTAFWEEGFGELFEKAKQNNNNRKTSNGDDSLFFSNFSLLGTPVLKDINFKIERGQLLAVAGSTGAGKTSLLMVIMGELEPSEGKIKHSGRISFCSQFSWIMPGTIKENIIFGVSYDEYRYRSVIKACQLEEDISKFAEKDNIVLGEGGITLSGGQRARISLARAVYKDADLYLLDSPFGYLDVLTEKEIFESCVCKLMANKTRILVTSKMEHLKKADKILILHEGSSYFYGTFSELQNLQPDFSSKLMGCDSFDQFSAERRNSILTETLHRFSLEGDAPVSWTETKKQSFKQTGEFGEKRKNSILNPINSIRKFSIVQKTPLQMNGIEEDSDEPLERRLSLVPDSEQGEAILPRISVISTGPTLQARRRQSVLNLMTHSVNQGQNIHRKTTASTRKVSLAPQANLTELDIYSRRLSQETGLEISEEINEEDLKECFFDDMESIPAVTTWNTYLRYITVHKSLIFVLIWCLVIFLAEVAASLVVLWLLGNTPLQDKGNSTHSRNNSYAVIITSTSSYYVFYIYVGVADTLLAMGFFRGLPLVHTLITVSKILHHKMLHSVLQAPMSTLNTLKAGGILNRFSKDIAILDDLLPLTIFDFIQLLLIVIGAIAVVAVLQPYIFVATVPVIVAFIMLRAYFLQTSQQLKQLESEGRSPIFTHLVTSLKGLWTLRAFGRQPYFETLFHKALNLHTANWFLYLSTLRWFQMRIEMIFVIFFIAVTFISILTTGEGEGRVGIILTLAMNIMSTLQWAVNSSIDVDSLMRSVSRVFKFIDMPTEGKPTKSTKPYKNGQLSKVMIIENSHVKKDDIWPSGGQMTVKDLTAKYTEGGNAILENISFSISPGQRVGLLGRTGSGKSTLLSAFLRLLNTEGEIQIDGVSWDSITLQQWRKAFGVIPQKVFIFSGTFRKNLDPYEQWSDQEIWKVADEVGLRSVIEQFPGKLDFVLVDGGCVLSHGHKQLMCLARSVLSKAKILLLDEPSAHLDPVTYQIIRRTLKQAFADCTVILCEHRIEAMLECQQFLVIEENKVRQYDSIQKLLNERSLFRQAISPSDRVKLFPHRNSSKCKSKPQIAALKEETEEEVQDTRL

As to `COc1ccc(-c2ccnc3cc(C(=O)N4CCN(C(=O)OC(C)(C)C)C(C)(C)C4)nn23)cc1OC` [Compound 113, tert-butyl 4-(7-(3,4-dimethoxyphenyl)pyrazolo [1,5-a]pyrimidine-2-carbonyl)-2,2-dimethylpiperazine-1-carboxylate], the EC50 is under 200 nM. Then `COc1ccc(-c2ccnc3cc(C(=O)N[C@H]4CC[C@H](C(=O)N5CCNCC5)CC4)nn23)cc1OC` [Compound 82, 7-(3,4-dimethoxyphenyl)-N-((1R,4R)-4-(piperazine-1-carbonyl)cyclohexyl) pyrazolo[1,5-a]pyrimidine-2-carboxamide], with at least 2000 nM; and `COc1ccc(-c2ccnc3cc(C(=O)N4CCN(C(=O)c5ccccc5Cl)[C@@H](C)C4)nn23)cc1OC` [Compound 260, (S)-(4-(2-chlorobenzoyl)-3-methylpiperazin-1-yl) (7-(3,4-dimethoxyphenyl)pyrazolo[1,5-a]pyrimidin-2-yl)methanone], with 200 to 2000 nM; and `COc1ccc(-c2ccnc3cc(C(=O)N4CCc5ccc(C(=O)N6CCN(C)CC6)cc54)nn23)cc1OC` [Compound 252, (7-(3,4-dimethoxyphenyl)pyrazolo[1,5-a]pyrimidin-2-yl)(6-(4-methylpiperazine-1-carbonyl)indolin-1-yl)methanone], with at least 2000 nM. `COc1ccc(-c2ccnc3cc(C(=O)N4C[C@H](C)N(C(=O)c5ccccc5)[C@@H](C)C4)nn23)cc1OC` [Compound 364, ((3S,5S)-4-benzoyl-3,5-dimethylpiperazin-1-yl) (7-(3,4-dimethoxyphenyl)pyrazolo[1,5-a]pyrimidin-2-yl)methanone]: the EC50 is under 200 nM. Then `COc1ccc(-c2ccnc3cc(C(=O)Nc4ccc(N5CCCCC5)cc4)nn23)cc1OC` [Compound 269, 7-(3,4-dimethoxyphenyl)-N-(4-(piperidin-1-yl)phenyl)pyrazolo [1,5-a]pyrimidine-2-carboxamide], with under 200 nM; and `COc1ccc(-c2ccnc3cc(C(=O)N4CCN(C(=O)OC(C)(C)C)[C@H](C)C4)nn23)cc1OC` [Compound 321, tert-butyl (R)-4-(7-(3,4-dimethoxyphenyl)pyrazolo [1,5-a]pyrimidine-2-carbonyl)-2-methylpiperazine-1-carboxylate], with 200 to 2000 nM. Consider `COc1cccc(C(=O)N2CCN(C(=O)c3cc4nccc(-c5ccc(OC)c(OC)c5)n4n3)C[C@@H]2C)c1` [Compound 318, (S)-(7-(3,4-dimethoxyphenyl)pyrazolo[1,5-a]pyrimidin-2-yl)(4-(3-methoxybenzoyl)-3-methylpiperazin-1-yl) methanone], for which the EC50 fell in the range of 200 to 2000 nM. Then `COC(=O)c1ccc(NC(=O)c2cc3nccc(-c4ccc(OC)cc4)n3n2)cc1` [Compound 23, methyl 4-(7-(4-methoxyphenyl)pyrazolo[1,5-a]pyrimidine-2-carboxamido)benzoate], with at least 2000 nM; and `COc1ccc(-c2ccnc3cc(C(=O)N4CCN(C(=O)OC(C)(C)C)[C@@H](C)C4)nn23)cc1OC` [Compound 112, tert-butyl (S)-4-(7-(3,4-dimethoxyphenyl)pyrazolo[1,5-a]pyrimidine-2-carbonyl)-2-methylpiperazine-1-carboxylate], with under 200 nM; and `CCN(CC)CCNC(=O)c1ccc(NC(=O)c2cc3nccc(-c4ccc(OC)c(OC)c4)n3n2)cc1` [Compound 221, N-(4-((2-(diethylamino)ethyl)carbamoyl)phenyl)-7-(3,4-dimethoxyphenyl)pyrazolo [1,5-a]pyrimidine-2-carboxamide], with at least 2000 nM. Regarding `COc1ccc(-c2ccnc3cc(C(=O)Nc4ccc(C(=O)O)c(OC)c4)nn23)cc1OC` [Compound 216, 4-(7-(3,4-dimethoxyphenyl)pyrazolo[1,5-a]pyrimidine-2-carboxamido)-2-methoxybenzoic acid], the EC50 was at least 2000 nM.

Turning to `COc1ccc(-c2ccnc3cc(C(=O)N4CCN(C(=O)c5ccsc5)[C@@H](C)C4)nn23)cc1OC` [Compound 379, (S)-(7-(3,4-dimethoxyphenyl)pyrazolo[1,5-a]pyrimidin-2-yl)(3-methyl-4-(thiophene-3-carbonyl)piperazin-1-yl)methanone], the EC50 is under 200 nM. `COc1ccc(-c2ccnc3cc(C(=O)N4CCCc5cc(C(=O)N6CCN(C)CC6)ccc54)nn23)cc1OC` [Compound 235, (7-(3,4-dimethoxyphenyl)pyrazolo[1,5-a]pyrimidin-2-yl)(6-(4-methylpiperazine-1-carbonyl)-3,4-dihydroquinolin-1(2H)-yl)methanone]: the EC50 is at least 2000 nM. Take `COc1ccc(-c2ccnc3cc(C(=O)N4CCc5cc(C(=O)O)ccc54)nn23)cc1OC` [Compound 231, 1-(7-(3,4-dimethoxyphenyl)pyrazolo[1,5-a]pyrimidine-2-carbonyl) indoline-5-carboxylic acid]: the EC50 is at least 2000 nM. `COc1ccc(-c2ccnc3cc(C(=O)N4CCN(C(=O)CO)CC4)nn23)cc1OC` [Compound 90, 1-(4-(7-(3,4-dimethoxyphenyl)pyrazolo[1,5-a]pyrimidine-2-carbonyl)piperazin-1-yl)-2-hydroxyethan-1-one]: the EC50 was at least 2000 nM. The same measure for `COc1ccc(-c2ccnc3cc(C(=O)Nc4ccc(C(=O)N(C)CCN(C)C)cc4)nn23)cc1OC` [Compound 219, 7-(3,4-dimethoxyphenyl)-N-(4-((2-(dimethylamino)ethyl) (methyl)carbamoyl)phenyl)pyrazolo[1,5-a] pyrimidine-2-carboxamide]: at least 2000 nM. As for `COc1ccc(-c2ccnc3cc(C(=O)Nc4ccc(OCC(=O)O)cc4)nn23)cc1OC` [Compound 35, 2-(4-(7-(3,4-dimethoxyphenyl)pyrazolo[1,5-a]pyrimidine-2-carboxamido)phenoxy)acetic acid], the EC50 is at least 2000 nM. The same measure for `COc1ccc(-c2ccnc3cc(C(=O)N[C@H]4CC[C@H](C(=O)NCCN5CCOCC5)CC4)nn23)cc1OC` [Compound 202, 7-(3,4-dimethoxyphenyl)-N-((1r,4r)-4-((2-morpholinoethyl)carbamoyl)cyclohexyl)pyrazolo [1,5-a]pyrimidine-2-carboxamide]: at least 2000 nM; for `COc1ccc(-c2ccnc3cc(C(=O)Nc4ccc(N5CCNCC5)cn4)nn23)cc1OC` [Compound 286, 7-(3,4-dimethoxyphenyl)-N-(5-(piperazin-1-yl)pyridin-2-yl)pyrazolo [1,5-a]pyrimidine-2-carboxamide]: under 200 nM; for `COc1ccc(-c2ccnc3cc(C(=O)N4CCN(C(=O)c5cccc(C)c5)[C@@H](C)C4)nn23)cc1OC` [Compound 369, (S)-(7-(3,4-dimethoxyphenyl)pyrazolo[1,5-a]pyrimidin-2-yl)(3-methyl-4-(3-methylbenzoyl)piperazin-1-yl)methanone]: under 200 nM. `COc1ccc(-c2ccnc3cc(C(=O)Nc4ccc(C(=O)OCCN5CCN(C(=O)OC(C)(C)C)CC5)cc4)nn23)cc1OC` [Compound 275, tert-butyl 4-(2-((4-(7-(3,4-dimethoxyphenyl)pyrazolo [1,5-a]pyrimidine-2-carboxamido)benzoyl)oxy)ethyl)piperazine-1-carboxylate]: the EC50 was under 200 nM.

Regarding `CCOc1ccc(NC(=O)c2cc3nccc(-c4ccc(F)c(OC)c4)n3n2)cc1` [Compound 307, N-(4-ethoxyphenyl)-7-(4-fluoro-3-methoxyphenyl)pyrazolo [1,5-a]pyrimidine-2-carboxamide], the EC50 was 200 to 2000 nM.
